Results published in article PMC12263422, “Cryo-EM structure of the human THIK-1 K2P K^+ channel reveals a lower Y gate regulated by lipids and anesthetics” (Nature Structural & Molecular Biology, 2025).
Several values for one entry are separate records, joined by “and”; a condition that tells them apart may be missing. Identical values can stand only once. Like-named read-outs stand apart in the source and are kept apart here.

Target: T1, Human K2P13.1 THIK-1 (WT) (Homo sapiens, UniProt Q9HB14)
T1 construct: expressed in transfected cells; host or cells: Xenopus oocytes (mRNA injection)
T1 sequence (Q9HB14 1-408): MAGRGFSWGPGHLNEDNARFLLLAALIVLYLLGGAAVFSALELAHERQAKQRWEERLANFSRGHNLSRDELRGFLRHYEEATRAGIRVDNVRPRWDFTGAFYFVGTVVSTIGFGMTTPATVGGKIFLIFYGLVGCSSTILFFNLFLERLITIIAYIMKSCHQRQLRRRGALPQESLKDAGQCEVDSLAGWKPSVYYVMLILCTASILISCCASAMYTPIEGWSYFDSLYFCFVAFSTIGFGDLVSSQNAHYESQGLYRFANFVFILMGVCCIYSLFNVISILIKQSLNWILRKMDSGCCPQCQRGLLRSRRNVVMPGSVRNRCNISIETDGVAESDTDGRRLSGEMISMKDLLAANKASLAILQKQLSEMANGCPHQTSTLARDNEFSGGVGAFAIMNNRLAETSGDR
Test: Macroscopic inside-out excised patch recordings from Xenopus oocytes expressing WT THIK-1; compounds applied to the intracellular side
Type: cell-based
Conditions: for Fold activation: THIK-1 WT (unstimulated); for inhibition at 152 µM: halothane 0.152 mM; for inhibition at 304 µM: halothane 0.304 mM; for inhibition at 1520 µM: halothane 1.52 mM; for inhibition at 3040 µM: halothane 3.04 mM; for inhibition at 15200 µM: halothane 15.2 mM
Description: Human K2P13.1 THIK-1 (GenBank accession number: NM_022054) and human K2P12.1 THIK-2 (NM_022055.1) were used in this study. For functional expression studies, the respective K^+ channel subtype coding sequences were subcloned into the oocyte expression vector pSGEM or the dual-purpose expression vector pFAW[41] and verified by sequencing. All mutant channels were obtained by site-directed mutagenesis and verified by sequencing. To increase surface expression and macroscopic currents, measurements of THIK-2 channels used a mutated ER retention motif, (R11A R12A R14A R15A R16A; THIK-2*)[20]. Vector DNA was linearized with NheI or MluI, and mRNA was synthesized in vitro using the SP6 or T7 AmpliCap Max High Yield Message Maker Kit (Cellscript, USA) or HiScribe T7 ARCA mRNA Kit (New England Biolabs).
Two-electrode voltage–clamp (TEVC) studies were performed in Xenopus oocytes. All animal use conformed to the Guide for the Care and Use of Laboratory Animals (NIH Publication 85–23), and all experiments using Xenopus toads were approved by the local ethics panels. Oocytes were stored at 17 °C in ND96 recording solution composed of (in mM): 96 NaCl, 2 KCl, 1.8 CaCl2, 1 MgCl2, 5 HEPES (pH 7.5 adjusted with NaOH and HCl), supplemented with Na-pyruvate (275 mg L^–1), theophylline (90 mg L^–1) and gentamicin (50 mg L^–1). Oocytes were injected with 1 ng mRNA for WT or mutant channels, and were incubated for 24–48 h at 17 °C. Two-electrode voltage clamp recordings were then performed as previously described[42],[43]. For macroscopic patch–clamp measurements, oocytes were obtained as described above incubated at 17 °C in a solution containing (mM): 54 NaCl, 30 KCl, 2.4 NaHCO3, 0.82 MgSO4 ×7 H2O, 0.41 CaCl2, 0.33 Ca(NO3)2 ×4 H2O and 7.5 TRIS (pH 7.4 adjusted with NaOH and HCl) for 1–4 days before use. Excised patch recordings in inside-out configuration conditions were performed at room temperature. Patch pipettes were made from thick-walled borosilicate glass GB 200TF-8P (Science Products), had resistances of 0.2–0.5 MΩ (tip diameter, 10–25 µm) and filled with a pipette solution (in mM): 120 KCl, 10 HEPES and 3.6 CaCl2 (pH 7.4 adjusted with KOH and HCl). Intracellular bath solutions and compounds were applied to the cytoplasmic side of excised patches for the various K^+ channels through a gravity flow multi-barrel pipette system. The intracellular solution had the following composition (in mM): 120 KCl, 10 HEPES, 2 EGTA and 1 pyrophosphate (pH adjusted with KOH and HCl). Currents were recorded with an EPC10 amplifier (HEKA Electronics) and sampled at 10 kHz or higher, with filtering set to 3 kHz (–3 dB) or higher, as appropriate for sampling rate. For measurements of GPCR activation, whole-cell currents were recorded for THIK-1 in transiently transfected HEK-293 cells. Cells were stimulated by a ramp protocol between −100 and +60 mV (holding potential, −80 mV). The pipette solution was composed of (in mM): 140 KCl, 2 MgCl2, 1 CaCl2, 2.5 EGTA and 10 HEPES (pH 7.3 adjusted with KOH and HCl). The extracellular bath solution had the following composition (in mM): 135 NaCl, 5 KCl, 2 MgCl2, 2 CaCl2, 10 glucose and 10 HEPES pH (pH 7.3 adjusted with NaOH and HCl). Oxotremorine M (Oxo-M) was added to extracellular bath solution to obtain the final concentration. Single-channel currents were recorded with an Axopatch 200B amplifier through a Digidata 1440A digitizer (Molecular Devices). Data were filtered at 2 kHz and recorded at a 200-kHz sampling rate with the program Clampex (Molecular Devices). Pipette solution and bath solution for cell-attached recordings contained (in mM): 140 KCl, 2 MgCl2, 1 CaCl2 and 10 HEPES (pH 7.4 adjusted with KOH and HCl). For inside-out recordings, the bath solution contained (in mM): 140 KCl, 2 MgCl2, 1 CaCl2 and 10 HEPES (pH 7.2 adjusted with KOH and HCl). All experiments were conducted at room temperature. […]

[1] = THIK-1 WT (TPenA), presence of 0.5 mM TPenA
[2] = THIK-1 WT (oleoyl-CoA), 5.0 µM oleoyl-CoA

With `FC(F)OC(Cl)C(F)(F)F` (centres unmarked) [Isoflurane, isoflurane] the “Inhibition (%)” value (4.9 mM Isoflurane, WT, individual recordings) was 88.353% and 81.703% and 79.557% and 81.992% and 78.205% and 79.070% and 68.116% and 80.054% and 86.809% and 87.556%, the inhibition at 242 µM (THIK-1 WT (oleoyl-CoA), 0.242 mM isoflurane) was 10.6% and the inhibition at 485 µM (THIK-1 WT (oleoyl-CoA), 0.485 mM isoflurane) was 21%. The inhibition at 2420 µM (THIK-1 WT (oleoyl-CoA), 2.42 mM isoflurane) was 33.6%, the inhibition at 4850 µM (THIK-1 WT (oleoyl-CoA), 4.85 mM isoflurane) was 60.9% and the inhibition at 24200 µM (THIK-1 WT (oleoyl-CoA), 24.2 mM isoflurane) was 79.7%. The Inhibition (THIK-1 WT (oleoyl-CoA), isoflurane concentration printed as "v" (mM)) was 4.36%, the inhibition at 48 µM (isoflurane 0.048 mM, THIK-1 WT) was 20.4% and the inhibition at 242 µM (isoflurane 0.242 mM, THIK-1 WT) was 33.6%. The inhibition at 485 µM (isoflurane 0.485 mM, THIK-1 WT) was 50.2%, the inhibition at 2420 µM (isoflurane 2.42 mM, THIK-1 WT) was 65.3% and the inhibition at 4850 µM (isoflurane 4.85 mM, THIK-1 WT) was 81.1%. The inhibition at 24200 µM (isoflurane 24.2 mM, THIK-1 WT) was 89.5%.
`CCCCC/C=C\C/C=C\CCCCCCCC(=O)O` [linoleic acid] gave a Fold activation (1 µM linoleic acid) of 0.98, a Fold activation (10 µM linoleic acid) of 1.75 and a Fold activation (30 µM linoleic acid) of 2.77. The Fold activation (50 µM linoleic acid) was 3.38, the Fold activation (100 µM linoleic acid) was 3.62 and the Fold activation (150 µM linoleic acid) was 4.27. For the same molecule, the Fold activation (200 µM linoleic acid) was 4.21, the “Fold activation with 30.0 µM linoleic acid” value (THIK-1 WT, individual recordings) was 3.150 and 3.640 and 4.490 and 2.650 and 2.000 and 1.880 and 1.350 and 1.220 and 3.650 and 3.260 and 3.220 and the “Fold activation with 30.0 µM linoleic acid” value (THIK-1 WT, mean) was 2.77. The EC50 (THIK-1 WT, mean, read-out: Linoleic acid EC50) was 28.5 µM and the EC50 (applied intracellularly to excised patches, WT, read-out: half-maximal effective concentration (activation)) was 29 ± 5 µM.
For `FCOC(C(F)(F)F)C(F)(F)F` [Sevoflurane, sevoflurane], the “Inhibition (%)” value (0.24 mM Sevoflurane, WT, individual recordings) was 52.54% and 40.05% and 49.45% and 28.56% and 58.12% and 60.68% and 50.30%, the inhibition at 240 µM (0.24 mM Sevoflurane, WT, mean) was 48.5% and the inhibition at 23 µM (THIK-1 WT, 0.023 mM sevoflurane) was 14.1%. It also gave an inhibition at 47 µM (THIK-1 WT, 0.047 mM sevoflurane) of 21.7%, an inhibition at 468 µM (THIK-1 WT, 0.468 mM sevoflurane) of 57.5% and an inhibition at 2340 µM (THIK-1 WT, 2.34 mM sevoflurane) of 79.5%.
In the case of `FC(F)(F)C(Cl)Br` (centres unmarked) [halothane], the inhibition at 152 µM (THIK-1 WT) is reported as 11%, the inhibition at 152 µM [1] is reported as 6.45% and the inhibition at 304 µM (THIK-1 WT) is reported as 18.8%. The inhibition at 304 µM [1] was 13%, the inhibition at 304 µM [2] was 4.78% and the inhibition at 1520 µM (THIK-1 WT) was 41.4%. The inhibition at 1520 µM [1] was 23.2%, the inhibition at 1520 µM [2] was 19.9% and the inhibition at 3040 µM (THIK-1 WT) was 57.6%. It also gave an inhibition at 3040 µM [1] of 30%, an inhibition at 3040 µM [2] of 38.9% and an inhibition at 15200 µM (THIK-1 WT) of 83.9%. It also gave an inhibition at 15200 µM [1] of 57.9% and an inhibition at 15200 µM [2] of 69.3%.
